Source: patent publication US20030186943A1, “Substituted gamma-phenyl-delta-lactams and uses related thereto” (Inflazyme Pharmaceuticals Ltd., priority 1998, published 2003)
Where two headings read alike, the source gives them in different places.

Key:
[1] = system: primary human neutrophils; assay: Generation of reactive oxygen species by fMLP-activated neutrophils (luminol-enhanced chemiluminescence); format: cell-based; conditions: Neutrophil
Text: Neutrophil activation can be measured by quantitation of ROS generated in vitro. Measurement of ROS allows specific quantitation of a pro-inflammatory species and is also a general measure of neutrophil activation. The most sensitive method for measuring the production of ROS by neutrophils is luminol-enhanced chemiluminescence. […] The assay system used to evaluate the ability of compounds to inhibit ROS generation in neutrophils is indicative of anti-inflammatory activity that may be efficacious in disease states including but not limited to rheumatoid arthritis and inflammatory bowel disease.
Freshly isolated primary human neutrophils (5×10^6 cells/mL) were incubated with the required concentrations of compound or vehicle for 30 minutes at 37° C. in HBSS buffer (pH 7.4) containing Ca^2+. 100 nM wortmannin was used as a positive control. Aliquots of each sample were transferred to a microtitre plate to which luminol (1 μM); obtained from Sigma; Catalogue No. A8511 is added. Activation of the neutrophils was immediately initiated by addition of (1 μM) fMLP; obtained from Sigma, Catalogue No. F3506. Light output from each well was recorded for 30 minutes in a microplate luminometer. Total light output (integral of the time-course) was determined for each well. Inhibitory activities of test drugs against neutrophil ROS generation is expressed as percentage activity relative to a no drug control (100% activation or generation of ROS) containing 0.25% DMSO. Concentration of test compound required to inhibit the generation of ROS to 50% of control values (IC50's) were determined from concentration-response curves by non-linear regression analysis.

[2] = system: primary human neutrophils; assay: fMLP-induced human neutrophil chemotaxis; format: cell-based; conditions: fMLP-induced chemotaxis, X marks this range, read-out: IC50 RANGE (μM) 1-10
Description: Chemotaxis buffer containing the chemoattractant fMLP (10 μM) was added to each well of a chemotaxis plate and a filter was inserted ensuring contact between the filter and the chemotaxis buffer in the well. A submaximal concentration of chemoattractant was used which had been determined in previous experiments. […] Freshly isolated neutrophils (1×10^6) were incubated with vehicle (0.125% DMSO)±test compound for 1 hr at 37° C. Treatment and control cell suspensions were then gently resuspended and 20 μL of cells was added to the top side of the filter on each well. The plate was incubated for 1.5 hours at 37° C. under 5% CO2. Cells were then removed from the top side of the filter by aspiration and the entire plate was centrifuged. The filter was removed and known concentrations of cells were added to unused wells to prepare a standard curve. XTT (Sigma; Catalogue No. X 4251)/PMS (Sigma; Catalogue No. P 7626) solution prepared in buffer was added to each well and the cells were further incubated 1-2 hours and measured for absorbance at 450 nm. Absorbance values were converted to cell numbers using the standard curve. IC50 values are averages from at least three separate experiments with triplicate determinations.

[3] = system: Resiniferitoxin-induced mouse ear edema; assay: Resiniferitoxin-induced mouse ear edema; format: in vivo; conditions: CD1 mice; for inhibition in vivo at 100 mg/kg: ip, intraperitoneal administration
Text: One of the primary characteristics of inflammation is an increase in vascular dilation and permeability leading to the extravasation of, and collection of fluids in, the interstitium, resulting in redness and swelling. Rheumatoid arthritis in particular is characterized by pronounced edema of affected joints resulting in significant pain and stiffness. The mouse ear inflammation model is a standard in vivo assay for inflammation that is based on an increase in ear weight which is attributable to edema induced by inflammatory mediators. RTX (resiniferitoxin; Sigma; Catalogue No. R 8756)) is a diterpene isolated from the plant Euphorbia poisonii and is an ultrapotent analog of capsaicin. RTX acts by selectively stimulating nociceptive and thermal-sensitive nerve ending in tissue, eliciting neurogenic edema. Compounds of the present invention, whether administered topically, intraperitoneally or orally, inhibited development of edema induced by topical application of RTX.
Mice (CD1, Charles River Laboratories) were separated into groups (n—5−8) and tagged. Control mice had RTX (0.1 μg/ear) applied topically to the inner and outer sides of the left ear and vehicle applied to the right ear as a control. For topical administration, experimental/treatment mice received RTX+test compound solution (50 μg/ear) on the left ear and acetone on the right ear. For intraperitoneal (i.p.) administration, 100 mg/kg test compound dissolved in 100 μL PEG 200:saline (1:1) was injected followed by a 30 minute waiting period then the standard 30 minute RTX edema induction. For oral (p.o.) administration, 10 mg/kg test compound in 100 μL PEG-200 was given to animals, then edema induced using 0.1 μg/ear RTX after a 1.5 hour waiting period. After edema induction, mice were sacrificed, and a standard disc of ear tissue was removed. Each disk of tissue was immediately weighed to the nearest 1/10th of a mg. Data were analyzed by taking the difference of each left ear from the right ear, calculating the mean+/−SEM. Statistical significance was tested by 2-sample t-test on the left/right ear weight differences of the control group vs. the experimental group.

[4] = target: T1, cAMP phosphodiesterase 3 from human platelets (Homo sapiens, UniProt Q14432); assay: Inhibition of cAMP phosphodiesterase 3 from human platelets; format: biochemical; conditions: PDE3, platelet cell extract, X marks this range
T1 construct: from tissue; host or cells: human platelets, cytoplasmic extract
Text: Compound 12 was screened for activity against 5 of the major classes of mammalian cyclic nucleotide phosphodiesterase (termed PDE 1 through 5). PDE's 1 through 4 utilize cAMP as substrate while PDE 5 uses cGMP. The broad specificity PDE inhibitor 3-isobutyl-1-methylxanthine (IBMX; Sigma; Catalogue No. 17018)) was used as a positive control in all assays. PDE's for the various assays were partially purified from the following cells/tissues; PDE 1 (bovine heart), PDE 2 (human platelets), PDE 3 (human platelets), PDE 4 (human promonocytic U937 cells) and PDE 5 (human platelets).
Platelet cell extracts were prepared as described above for the U937 cells. The PDE3 assay was performed using platelet cell extract as described above for the PDE 4 assay. Platelets contain PDE 2, 3 and 5. However PDE2 and 5 preferentially utilize cGMP, so in an assay with cAMP as a substrate they are not detected.

[5] = system: High Affinity Rolipram Binding Site of PDE4 in Mouse Brain; assay: Displacement of [3H]-rolipram from its high affinity binding site (HARBS); conditions: ratio of IC50 for PDE4 catalytic activity to concentration displacing 50% of rolipram from HARBS
Description: Suspension was centrifuged twice at 30,000×G at 4° C. and the supernatant discarded. The pellet was resuspended in buffer, and adjusted to a protein concentration of 0.5 mg/mL. Drugs to be tested were dissolved in DMSO and pipetted in triplicate into a 96 well microplate at concentrations ranging from 1 to 30,000 nM. […] The plate was incubated at 4° C. for 1 hour. Contents of the plate were aspirated through a Whatman GF/C filterplate, and rinsed with 4×200 μL ice-cold buffer. […] Triplicate determinations were performed at each concentration.

[6] = system: cAMP response element luciferase activity in human U937 monocytic cells; assay: Potentiation of forskolin-induced CRE-luciferase activity in U937 cells; format: cell-based; conditions: U-937, U937 cells co-incubated with 10 μM forskolin, 4 hours, X marks this range
Description: Compounds of the present invention were thereby shown to provide potentiated luciferase expression in U937 cells treated with the adenylyl cyclase activator forskolin.
Human pro-monocytic U937 cells were maintained in RPMI medium containing 10% FCS and 2 mM […]. U937 cells were transiently transfected as described in Biotechniques Vol. 17(6):1058, 1994. Briefly, cells were grown in medium containing serum to a density of 5×10^6 cells/mL and then resuspended in media containing serum at a density of approximately 1×10^7 cells/mL. 400 μL of cells were transferred into the electroporation cuvette containing 10 μg of the reporter vector (PCRE-luc) in a volume of 40 μL H2O. Reporter vector DNA was prepared from DH5α E. coli using the DNA […] free kit (Qiagen) as per manufacturers instructions. U937 cells were clectroporated at room temperature using a BIORAD electroporator. Capacitance was set to 1050 μF and voltage was 280V. The time constant was noted after each electroporation. Cells were then diluted in 4 mL of media and serum and 200 μL of cells were plated per well. Cells were allowed to recover for 16-18 hours. Cells were then treated with a test compound or vehicle in the presence or absence of 10 μM forskolin for 4 hours at 37° C.
The luciferase assay was performed as per manufacturers instructions (Tropix). Briefly, cells were centrifuged for 4 minutes at 1200 rpm and media supernatant was removed. Cell pellets were lysed in 15 μL Lysis buffer (Tropix). Luciferase assay was performed using 10 μL of cell lysate with 10 μL of buffer A and 25 μL buffer B. Luciferase activity was obtained using a luminometer with a 5-second delay followed by a read time of 10 seconds.

[7] = ROS production, X marks this range, read-out: IC50 RANGE (μM) 1-10
[8] = Mus musculus, topical administration, 50 μg/ear, RTX 0.1 μg/ear
[9] = read-out: IC50 RANGE (μM) <1, ROS production, X marks this range
[10] = read-out: EC50 range (μM) 0.1-1
[11] = read-out: IC50 range (μM) 10-100

T1 sequence (Q14432 whole entry): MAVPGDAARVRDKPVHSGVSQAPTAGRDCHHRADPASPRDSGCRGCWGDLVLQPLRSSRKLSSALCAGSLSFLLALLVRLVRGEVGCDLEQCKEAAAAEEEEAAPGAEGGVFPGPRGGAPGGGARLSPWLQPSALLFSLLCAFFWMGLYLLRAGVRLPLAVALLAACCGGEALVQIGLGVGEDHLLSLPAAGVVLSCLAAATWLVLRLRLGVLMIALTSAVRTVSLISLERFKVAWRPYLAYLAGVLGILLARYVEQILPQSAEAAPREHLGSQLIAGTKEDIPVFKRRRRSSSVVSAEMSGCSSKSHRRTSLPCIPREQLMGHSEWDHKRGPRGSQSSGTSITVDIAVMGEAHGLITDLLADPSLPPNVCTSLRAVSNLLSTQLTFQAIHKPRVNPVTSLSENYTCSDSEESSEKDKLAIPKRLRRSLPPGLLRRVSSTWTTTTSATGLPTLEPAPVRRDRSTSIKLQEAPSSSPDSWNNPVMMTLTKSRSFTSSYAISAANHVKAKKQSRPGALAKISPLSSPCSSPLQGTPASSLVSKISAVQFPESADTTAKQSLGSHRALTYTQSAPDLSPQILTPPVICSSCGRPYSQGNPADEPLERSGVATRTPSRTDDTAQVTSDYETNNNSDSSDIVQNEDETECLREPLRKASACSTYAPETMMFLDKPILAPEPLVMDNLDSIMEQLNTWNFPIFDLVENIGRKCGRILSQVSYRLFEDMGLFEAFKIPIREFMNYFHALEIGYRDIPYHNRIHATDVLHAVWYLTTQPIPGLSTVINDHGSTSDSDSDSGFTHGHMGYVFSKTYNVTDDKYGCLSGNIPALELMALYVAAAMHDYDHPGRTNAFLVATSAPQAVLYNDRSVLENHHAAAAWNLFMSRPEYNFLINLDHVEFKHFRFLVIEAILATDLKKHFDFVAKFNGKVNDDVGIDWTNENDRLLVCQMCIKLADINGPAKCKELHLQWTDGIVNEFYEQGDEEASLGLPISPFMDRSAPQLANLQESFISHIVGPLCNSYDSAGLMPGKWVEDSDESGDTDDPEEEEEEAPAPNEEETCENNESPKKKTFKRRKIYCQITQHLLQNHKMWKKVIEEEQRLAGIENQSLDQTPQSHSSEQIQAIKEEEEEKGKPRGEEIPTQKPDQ

SMILES | IC50 [4] | PDE4:HARBS [5] | EC50 ([6]; read-out: EC50 range (μM) 1-25) | IC50 [1, 9] | also measured
COc1ccc([C@@H]2CCC(=O)OC2)cc1OC [Compound 21] | > 100 µM | <1 | 1 to 25 µM | – | IC50 [1, 7]: 1 to 10 µM; IC50 [2]: 1 to 10 µM; inhibition in vivo at 50 µg/ear [3, 8]: 32%
COc1cc(CC2C[C@@H](c3ccc(OC)c(OC4CCCC4)c3)COC2=O)ccc1OCc1ccccc1 (stereo partly drawn) [Compound 42] | > 100 µM | <1 | 1 to 25 µM | – | IC50 ([1]; ROS production, X marks this range, read-out: IC50 RANGE (μM) 10-100): 10 to 100 µM; inhibition in vivo at 100 mg/kg ([3]; Mus musculus): 38%; inhibition in vivo at 10 mg/kg ([3]; Mus musculus, oral administration, 10 mg/kg): 41%
BrCc1ccc(OCc2ccccc2)c(OCc2ccccc2)c1 [Compound 78, 3,4-dibenzyloxy benzyl bromide] | – | – | – | – | inhibition in vivo at 50 µg/ear [3, 8]: 93%
COc1ccc([C@@H](CO)CCC(=O)OC(C)(C)C)cc1OCc1ccccc1 [Compound 91] | – | – | – | – | % Inhibition of Edema ([3]; topical administration, 50 μg/ear, RTX 0.1 μg/ear): 27%
COc1ccc([C@@H]2CCC(=O)OC2)cc1OCc1ccccc1 [Compound 92] | – | – | – | – | inhibition in vivo at 50 µg/ear [3, 8]: 93%
CCCCOc1cc([C@@H]2CCC(=O)OC2)ccc1OC [Compound 99] | > 100 µM | >1 | – | < 1 µM | inhibition in vivo at 100 mg/kg ([3]; Mus musculus): 88%; inhibition in vivo at 50 µg/ear [3, 8]: 98%; EC50 [6, 10]: 0.1 to 1 µM
COc1ccc([C@@H]2CCC(=O)OC2)cc1OC(C)=O [Compound 103] | – | – | – | – | inhibition in vivo at 50 µg/ear [3, 8]: 94%
COc1cc(CC2CC(c3ccc(OC)c(OC)c3)COC2=O)ccc1O (stereo not drawn) [Compound 129] | – | <1 | 1 to 25 µM | < 1 µM | IC50 [2]: 1 to 10 µM; IC50 [4, 11]: 10 to 100 µM
COc1cc(C[C@@H]2C[C@H](c3ccc(OC)c(OC)c3)COC2=O)ccc1O [Compound 130] | – | <1 | 1 to 25 µM | < 1 µM | IC50 [2]: 1 to 10 µM; IC50 [4, 11]: 10 to 100 µM
COc1ccc([C@H]2COC(=O)C(Cc3ccc(OC)c(OCc4ccccc4)c3)C2)cc1OC (stereo partly drawn) [Compound 135] | – | <1 | 1 to 25 µM | < 1 µM | IC50 [4, 11]: 10 to 100 µM
COc1ccc([C@@H]2CCC(=O)OC2)cc1OC(C)C [Compound 155] | > 100 µM | <1 | 1 to 25 µM | – | IC50 [1, 7]: 1 to 10 µM; EC50 [6, 10]: 0.1 to 1 µM
C=C(C)COc1cc([C@@H]2CCC(=O)OC2)ccc1OC [Compound 156] | > 100 µM | 1 | – | < 1 µM | EC50 [6, 10]: 0.1 to 1 µM
COc1ccc([C@@H]2CCC(=O)OC2)cc1OCC1CCC1 [Compound 157] | > 100 µM | >1 | – | < 1 µM | EC50 [6, 10]: 0.1 to 1 µM
COc1ccc([C@H]2COC(=O)C(Cc3ccccc3)C2)cc1OC1CCCC1 (stereo partly drawn) [Compound 168] | > 100 µM | <1 | 1 to 25 µM | < 1 µM | –
COc1ccc([C@H]2COC(=O)C(Cc3ccccc3[N+](=O)[O-])C2)cc1OC1CCCC1 (stereo partly drawn) [Compound 174] | > 100 µM | <1 | – | – | IC50 ([1]; read-out: IC50 RANGE (μM) >100, ROS production, X marks this range): > 100 µM; EC50 ([6]; read-out: EC50 range (μM) >25): > 25 µM
COc1ccc([C@H]2COC(=O)C(Cc3cccc([N+](=O)[O-])c3)C2)cc1OC1CCCC1 (stereo partly drawn) [Compound 175] | > 100 µM | <1 | 1 to 25 µM | – | IC50 [1, 7]: 1 to 10 µM
COc1ccc(CC2(Cc3ccc(OC)c(O)c3)C[C@@H](c3ccc(OC)c(OC4CCCC4)c3)COC2=O)cc1O [Compound 181] | > 100 µM | <1 | – | – | IC50 [1, 7]: 1 to 10 µM; EC50 ([6]; read-out: EC50 range (μM) >25): > 25 µM
COc1ccc([C@H]2COC(=O)C(Cc3cccc(N)c3)C2)cc1OC1CCCC1 (stereo partly drawn) [Compound 184] | > 100 µM | >1 | 1 to 25 µM | < 1 µM | –
